Literature values as cited in patent EP1379546B1, “PEPTIDE FOR THE DIAGNOSIS AND THERAPY OF ALZHEIMER'S DISEASE” (Leibniz-Institut für Altersforschung - …, priority 2001, dated 2002).

Biological target: Aβ (Homo sapiens, UniProt P05067)
Details: inhibition of Aβ fibril formation and anticytotoxic effect, reported in Tomiyama et al., J. Biol. Chem. 1996

Sequence of Aβ (P05067 672-711 limits assumed): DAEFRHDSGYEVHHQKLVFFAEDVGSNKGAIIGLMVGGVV

In the case of `CCCCCCCCCCCCCCCC[N+]1(C)CCCCC1.[Br-]` [Hexadecyl-N-methylpiperidiniumbromid], the Dissoziationskonstante is given as “µM- bis mM-Bereich”.
For `CO[C@H]1/C=C/O[C@@]2(C)Oc3c(C)c(O)c4c(O)c(c(/C=N/N5CCN(C)CC5)c(O)c4c3C2=O)NC(=O)/C(C)=C\C=C\[C@H](C)[C@H](O)[C@@H](C)[C@@H](O)[C@@H](C)[C@H](OC(C)=O)[C@@H]1C` [Rifampicin], the Dissoziationskonstante is given as “µM- bis mM-Bereich”.
